Test results taken from US9382254B2, “Compounds and pharmaceutical compositions thereof for the treatment of cystic fibrosis” (Galapagos NV, priority 2013, dated 2016).

What was measured:
CFTR G551D mutant = target: T1, CFTR G551D mutant (Homo sapiens, UniProt P13569, G551D); assay: YFP-halide influx assay for the CFTR-G551D mutation; assay type: cell-based; conditions: HEK293 cells, forskolin 10.67 μM
T1 construct: expressed in transfected cells; host or cells: HEK293 (reverse transfection with plasmid)
Text: The YFP halide influx assay measures the functionality of the cystic fibrosis Transmembrane Conductance regulator (CFTR) channels. The assay is used to evaluate the capacity of compounds to increase the channel opening of existing mutant CFTR channels in the membrane. It makes use of the observation that the yellow fluorescent protein (YFP) variant YFP H148Q, I152L, […] has its fluorescence substantially quenched by halide ions like Cl^− and I^−. (Galietta, Haggie, & Verkman, 2001)
For this purpose, HEK293-cells are seeded in 96 well plates. During seeding, the cells are reverse-transfected with plasmid vectors that direct the expression of the CFTR G551D mutant and of the YFP reporter. Cells are incubated at 37° C., 5% CO2 for 24 hours so as to allow for sufficient expression of the CFTR protein.
(§1) The I^−-induced quenching of fluorescence is recorded immediately after injection of I^− for 7 seconds. The capacity of a compound to increase the channel opening is directly correlated with the decrease in fluorescence, and is expressed as (1-(fluorescence after 7 seconds (F)/fluorescence before injection (F0))) and an EC50 can be derived from a (1-F/F0) vs compound concentration plot.

CFTR ΔF508 mutant = target: T2, CFTR ΔF508 mutant (Homo sapiens, UniProt P13569, DEL508-508); assay: YFP-halide influx assay for the CFTR-ΔF508 mutation (384 well, FDSS/μCell); assay type: cell-based; conditions: CFBE41o- cells, CFTR-ΔF508, 1×D-PBS, fluorescence after 36 seconds
T2 construct: expressed in transfected cells; host or cells: CFBE41o- (adenoviral transduction)
Text: The YFP halide influx assay measures the functionality of the cystic fibrosis Transmembrane Conductance regulator (CFTR) channels in the cystic fibrosis bronchial epithelium cell line CFBE41o-. The assay is used to evaluate the capacity of compounds to increase the open probability of existing CFTR channels in the membrane. It makes use of the observation that the yellow fluorescent protein (YFP) variant YFP H148Q, I152L has its fluorescence substantially quenched by halide ions like Cl— and I—. (Galietta, Haggie, & Verkman, 2001) (Nagai, et al., 2002)
For this purpose, CFBE41o-cells are seeded in 384 well plates (3000 CFBE cells/well). One day after seeding, the CFBE cells are transduced with adenoviral vectors that direct the expression of the CFTR ΔF508 mutant and of the YFP reporter. Cells are incubated at 27° C., 5% CO2 for 24 hours so as to allow for the proper folding and migration to the membrane of the CFTR channel or treated with a CFTR modulator during 24 h at 37° C.
as §1, with “I— induced” for “I^−-induced”, “recorded […]” for “recorded”, “I—” for “I^−”, “2 min on an FDSS/μCell (Hamamatsu).” for “7 seconds.”, “36” for “7”

T1 sequence (P13569 whole entry G551D): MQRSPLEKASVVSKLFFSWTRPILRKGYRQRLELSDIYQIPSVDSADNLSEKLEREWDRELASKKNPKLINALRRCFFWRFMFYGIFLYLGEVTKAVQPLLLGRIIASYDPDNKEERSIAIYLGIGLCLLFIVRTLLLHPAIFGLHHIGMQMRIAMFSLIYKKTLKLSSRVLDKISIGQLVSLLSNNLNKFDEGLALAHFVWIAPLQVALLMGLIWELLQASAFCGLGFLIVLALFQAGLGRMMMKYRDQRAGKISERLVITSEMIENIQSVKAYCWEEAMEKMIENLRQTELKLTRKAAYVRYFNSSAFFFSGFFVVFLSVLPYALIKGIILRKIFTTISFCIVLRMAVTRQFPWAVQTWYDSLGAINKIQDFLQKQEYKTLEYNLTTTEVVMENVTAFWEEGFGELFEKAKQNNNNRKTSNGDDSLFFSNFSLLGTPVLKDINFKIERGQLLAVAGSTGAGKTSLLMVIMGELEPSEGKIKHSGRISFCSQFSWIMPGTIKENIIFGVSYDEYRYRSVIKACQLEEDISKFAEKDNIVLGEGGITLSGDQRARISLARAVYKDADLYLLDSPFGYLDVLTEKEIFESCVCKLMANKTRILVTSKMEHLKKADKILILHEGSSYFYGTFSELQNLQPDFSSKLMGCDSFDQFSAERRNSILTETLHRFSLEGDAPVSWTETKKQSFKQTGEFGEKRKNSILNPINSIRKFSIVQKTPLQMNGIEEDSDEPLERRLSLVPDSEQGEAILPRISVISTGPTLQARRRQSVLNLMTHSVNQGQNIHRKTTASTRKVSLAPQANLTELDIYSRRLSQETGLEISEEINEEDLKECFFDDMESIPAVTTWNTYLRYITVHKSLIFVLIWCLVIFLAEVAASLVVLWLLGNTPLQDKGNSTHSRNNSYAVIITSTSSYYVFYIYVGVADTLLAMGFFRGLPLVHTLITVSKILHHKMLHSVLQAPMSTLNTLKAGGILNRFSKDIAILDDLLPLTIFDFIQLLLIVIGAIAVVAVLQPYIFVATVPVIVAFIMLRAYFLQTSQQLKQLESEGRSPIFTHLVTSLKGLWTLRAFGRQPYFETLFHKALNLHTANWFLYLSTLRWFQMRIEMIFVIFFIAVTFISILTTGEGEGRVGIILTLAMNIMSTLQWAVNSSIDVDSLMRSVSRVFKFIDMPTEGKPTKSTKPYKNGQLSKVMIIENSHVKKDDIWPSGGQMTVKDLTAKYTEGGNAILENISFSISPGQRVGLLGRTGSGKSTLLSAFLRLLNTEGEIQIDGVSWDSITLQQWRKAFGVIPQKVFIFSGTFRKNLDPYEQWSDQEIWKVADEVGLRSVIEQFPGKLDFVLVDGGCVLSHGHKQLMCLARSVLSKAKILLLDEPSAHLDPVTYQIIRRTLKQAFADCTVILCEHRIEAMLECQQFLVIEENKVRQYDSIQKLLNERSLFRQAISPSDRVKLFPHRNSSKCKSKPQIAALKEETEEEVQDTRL
T2 sequence (P13569 with tags, fused parts or gaps DEL508-508): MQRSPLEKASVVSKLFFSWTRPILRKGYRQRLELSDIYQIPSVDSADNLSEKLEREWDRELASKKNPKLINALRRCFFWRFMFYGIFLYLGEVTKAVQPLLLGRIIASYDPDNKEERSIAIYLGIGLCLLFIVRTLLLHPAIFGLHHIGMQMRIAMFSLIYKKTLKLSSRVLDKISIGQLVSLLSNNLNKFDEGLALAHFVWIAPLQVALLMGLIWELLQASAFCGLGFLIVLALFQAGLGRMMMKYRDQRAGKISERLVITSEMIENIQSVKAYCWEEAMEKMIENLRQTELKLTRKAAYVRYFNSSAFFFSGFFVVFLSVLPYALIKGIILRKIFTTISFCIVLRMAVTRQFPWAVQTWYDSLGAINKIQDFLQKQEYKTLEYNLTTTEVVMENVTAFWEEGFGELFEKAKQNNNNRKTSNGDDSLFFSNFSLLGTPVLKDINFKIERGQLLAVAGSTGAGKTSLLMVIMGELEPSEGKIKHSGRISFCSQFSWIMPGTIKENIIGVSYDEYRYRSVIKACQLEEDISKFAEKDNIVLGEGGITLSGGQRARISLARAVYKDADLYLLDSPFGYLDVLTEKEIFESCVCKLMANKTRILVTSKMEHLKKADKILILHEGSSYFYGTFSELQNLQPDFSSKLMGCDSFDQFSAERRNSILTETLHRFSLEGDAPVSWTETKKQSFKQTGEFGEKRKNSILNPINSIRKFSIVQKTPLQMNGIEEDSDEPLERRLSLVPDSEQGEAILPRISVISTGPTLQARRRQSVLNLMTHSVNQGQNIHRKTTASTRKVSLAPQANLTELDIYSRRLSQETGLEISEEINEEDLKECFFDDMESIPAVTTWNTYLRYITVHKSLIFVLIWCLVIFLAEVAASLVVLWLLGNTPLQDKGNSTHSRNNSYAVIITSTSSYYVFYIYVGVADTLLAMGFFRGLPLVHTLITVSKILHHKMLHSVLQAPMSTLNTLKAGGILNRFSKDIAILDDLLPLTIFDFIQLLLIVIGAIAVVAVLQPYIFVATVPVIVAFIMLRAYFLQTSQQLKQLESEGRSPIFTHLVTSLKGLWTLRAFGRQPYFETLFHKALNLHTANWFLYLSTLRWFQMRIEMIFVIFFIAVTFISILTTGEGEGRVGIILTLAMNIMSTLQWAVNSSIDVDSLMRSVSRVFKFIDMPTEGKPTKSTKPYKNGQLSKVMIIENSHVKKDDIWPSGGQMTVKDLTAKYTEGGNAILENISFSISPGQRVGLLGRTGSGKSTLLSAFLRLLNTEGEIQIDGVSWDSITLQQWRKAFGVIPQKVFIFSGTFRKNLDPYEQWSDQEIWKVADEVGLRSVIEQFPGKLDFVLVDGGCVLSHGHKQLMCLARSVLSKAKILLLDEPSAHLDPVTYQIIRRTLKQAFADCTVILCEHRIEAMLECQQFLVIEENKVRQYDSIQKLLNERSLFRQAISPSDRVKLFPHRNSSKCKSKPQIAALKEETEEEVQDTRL

EC50 (CFTR G551D mutant) [nM] | EC50 (CFTR ΔF508 mutant) [nM] | Compound | EC50 (CFTR G551D mutant; class symbol) [nM]
– | – | 5-[[5-bromo-6- (trifluoromethyl)-3-pyridyl] sulfonyl]-2-[(2-hydroxy-2- methyl-propanoyl)amino] thiophene-3-carboxamide [Compound 441] | > 1000
1390 | 19.1 | CC(O)C(=O)Nc1sc(S(=O)(=O)c2ccc(Cl)cc2)cc1C(N)=O (single isomer, unassigned; enantiomer 1) [Compound 347] | –
2550 | 16.4 | C[C@H](O)C(=O)Nc1sc(S(=O)(=O)c2ccc(F)cc2C(F)(F)F)cc1C(N)=O (single isomer, unassigned; enantiomer 1) [Compound 348] | –
> 1340 | 12.2 | CC(C)C(O)C(=O)Nc1sc(S(=O)(=O)c2ccc(F)cc2)cc1C(N)=O (single isomer, unassigned; enantiomer 1) [Compound 352] | > 1000
1720 | 10.8 | CC(O)C(=O)Nc1sc(S(=O)(=O)c2ccc(F)cc2Cl)cc1C(N)=O (single isomer, unassigned; enantiomer 1) [Compound 353] | –
1260 | – | CC(O)C(=O)Nc1sc(S(=O)(=O)c2c(Cl)cc(F)cc2Cl)cc1C(N)=O (single isomer, unassigned; enantiomer 1) [Compound 354] | –
1820 | 10.5 | CCc1ccccc1S(=O)(=O)c1cc(C(N)=O)c(NC(=O)C(C)O)s1 (stereo not drawn) [Compound 312, 5-(2-Ethyl-benzenesulfonyl)-2-(2-hydroxy-propionylamino)-thiophene-3-carboxylic acid amide] | –
2930 | 38.3 | CC(O)C(=O)Nc1sc(S(=O)(=O)c2c(F)cccc2F)cc1C(N)=O (stereo not drawn) [Compound 313, 5-(2,6-Difluoro-benzenesulfonyl)-2-(2-hydroxy-propionylamino)-thiophene-3-carboxylic acid amide] | –
458 | 7.5 | C[C@H](O)C(=O)Nc1sc(S(=O)(=O)c2c(Cl)cccc2Cl)cc1C(N)=O [Compound 314, 5-(2,6-Dichloro-benzenesulfonyl)-2-((S)-2-hydroxy-propionylamino)-thiophene-3-carboxylic acid amide] | –
828 | 42.4 | CC(C)Oc1ccc(S(=O)(=O)c2cc(C(N)=O)c(NC(=O)C(C)(C)O)s2)c(F)c1 [Compound 315, 5-(2-Fluoro-4-isopropoxy-benzenesulfonyl)-2-(2-hydroxy-2-methyl-propionylamino)-thiophene-3-carboxylic acid amide] | –
1160 | 31.1 | Cc1ccc(S(=O)(=O)c2cc(C(N)=O)c(NC(=O)C(C)(C)O)s2)cc1 [Compound 316, 2-(2-Hydroxy-2-methyl-propionylamino)-5-(toluene-4-sulfonyl)-thiophene-3-carboxylic acid amide] | –
3330 | 241 | CC(C)(O)C(=O)Nc1sc(S(=O)(=O)c2ncccc2Cl)cc1C(N)=O [Compound 317, 5-(3-Chloro-pyridine-2-sulfonyl)-2-(2-hydroxy-2-methyl-propionylamino)-thiophene-3-carboxylic acid amide] | –
716 | 20.2 | CC(O)C(=O)Nc1sc(S(=O)(=O)c2ccc(OC(F)(F)F)cc2)cc1C(N)=O (stereo not drawn) [Compound 318, 2-(2-Hydroxy-propionylamino)-5-(4-trifluoromethoxy-benzenesulfonyl)-thiophene-3-carboxylic acid amide] | –
377 | 8.2 | NC(=O)c1cc(S(=O)(=O)c2ccccc2OC(F)(F)F)sc1NC(=O)CO [Compound 319, 2-(2-Hydroxy-acetylamino)-5-(2-trifluoromethoxy-benzensulfonyl)-thiophene-3-carboxylic acid amide] | –
1930 | 12.3 | CC(O)C(=O)Nc1sc(S(=O)(=O)c2ccccc2Cl)cc1C(N)=O (stereo not drawn) [Compound 321, 5-(2-Chloro-benzenesulfonyl)-2-(2-hydroxy-propionylamino)-thiophene-3-carboxylic acid amide] | –
919 | 41.1 | CC(C)Oc1ccc(S(=O)(=O)c2cc(C(N)=O)c(NC(=O)C(C)(C)O)s2)c(Cl)c1 [Compound 322, 5-(2-Chloro-4-isopropoxy-benzenesulfonyl)-2-(2-hydroxy-2-methyl-propionylamino)-thiophene-3-carboxylic acid amide] | –
3160 | 84.2 | CC(C)Oc1ccc(S(=O)(=O)c2cc(C(N)=O)c(NC(=O)C(C)(C)O)s2)c(C(F)(F)F)c1 [Compound 324, 2-(2-Hydroxy-2-methyl-propionylamino)-5-(4-isopropoxy-2-trifluoromethyl-benzenesulfonyl)-thiophene-3-carboxylic acid amide] | –
– | 1060 | Cc1ncccc1S(=O)(=O)c1cc(C(N)=O)c(NC(=O)C(C)O)s1 (stereo not drawn) [Compound 326, 2-(2-hydroxypropanoylamino)-5-[(2-methyl-3-pyridyl)sulfonyl] thiophene-3-carboxamide] | > 1000
3330 | 134 | C[C@@H](O)C(=O)Nc1sc(S(=O)(=O)c2ccc(F)cc2)cc1C(N)=O [Compound 327, 5-(4-fluorophenyl) sulfonyl-2-[[(2R)-2-hydroxypropanoyl]amino] thiophene-3-carboxamide] | –
427 | 25.8 | CC(O)C(=O)Nc1sc(S(=O)(=O)c2ccc(OC(F)(F)F)cc2Cl)cc1C(N)=O (stereo not drawn) [Compound 328, 5-[2-chloro-4-(trifluoromethoxy)phenyl] sulfonyl-2-(2-hydroxypropanoylamino) thiophene-3-carboxamide] | –
62.2 | 5.3 | CC(C)(O)C(=O)Nc1sc(S(=O)(=O)c2cccc3c2OC(F)(F)O3)cc1C(N)=O [Compound 330, 5-[(2,2-difluoro-1,3-benzodioxol-4-yl)sulfonyl]-2-[(2-hydroxy-2-methyl-propanoyl)amino] thiophene-3-carboxamide] | –
525 | 22.8 | C[C@@H](O)C(=O)Nc1sc(S(=O)(=O)c2ccc(OC(F)(F)F)cc2)cc1C(N)=O [Compound 332, 2-[[(2R)-2-hydroxypropanoyl]amino]-5-[4-(trifluoromethoxy)phenyl] sulfonyl-thiophene-3-carboxamide] | –
107 | 5.7 | CC(O)C(=O)Nc1sc(S(=O)(=O)c2cc(F)ccc2C(F)(F)F)cc1C(N)=O (stereo not drawn) [Compound 335, 5-[5-fluoro-2-(trifluoromethyl)phenyl] sulfonyl-2-(2-hydroxypropanoylamino) thiophene-3-carboxamide] | –
– | 19.6 | C[C@H](O)C(=O)Nc1sc(S(=O)(=O)c2ccc(OC(F)(F)F)cc2F)cc1C(N)=O [Compound 444, 5-[2-fluoro-4-(trifluoromethoxy)phenyl] sulfonyl-2-[[(2S)-2-hydroxypropanoyl]amino] thiophene-3-carboxamide] | –
– | 19.6 | C[C@H](O)C(=O)Nc1sc(S(=O)(=O)c2ccc(C(F)(F)F)cc2F)cc1C(N)=O [Compound 445, 5-[2-fluoro-4-(trifluoromethyl)phenyl] sulfonyl-2-[[(2S)-2-hydroxypropanoyl]amino] thiophene-3-carboxamide] | –
– | 41.3 | CC(C)(CO)C(=O)Nc1sc(S(=O)(=O)c2ccc(OC(F)(F)F)cc2)cc1C(N)=O [Compound 446, 2-[(3-hydroxy-2,2-dimethyl-propanoyl)amino]-5-[4-(trifluoromethoxy)phenyl] sulfonyl-thiophene-3-carboxamide] | –

Compound | EC50 (CFTR G551D mutant) [nM] | EC50 (CFTR ΔF508 mutant) [nM] | EC50 (CFTR G551D mutant; class symbol) [nM]
2-[[(2S)-2-hydroxy-3-methyl- butanoyl]amino]-5-[4- (trifluoromethyl)phenyl] sulfonyl-thiophene-3- carboxamide [Compound 366] | 458 | – | 100 to 500
5-(4-chlorophenyl)sulfonyl-2- [[(2S)-2-hydroxy-3- methyl-butanoyl]amino] thiophene-3-carboxamide [Compound 367] | 794 | – | 500 to 1000
5-(4-fluoro-2-(methoxymethyl) phenylsulfonyl)-2-(2-hydroxy- 2-methylpropanamido) thiophene-3-carboxamide [Compound 300] | 1760 | – | > 1000
